Assay results from US7767665B2, “1,3-benzothiazinone derivatives and use thereof” (Takeda Pharmaceutical Company Limited, priority 2001, dated 2010).
Structures can show the parent of a compound that is named as a salt.

Legend:
[1] = test system: primary heart muscle cells from newborn rats; assay: Inhibitory activity on heart muscle cell apoptosis (serum-free culture, viable cell number by WST-8); format: cell-based, Wister rats; details: Rattus norvegicus, 96 h; mean of three independent experiments; concentration required to increase the mean viable cell number by 50% as compared with that in the absence of test compounds; serum-free Medium 199, 4 days
Source text: Inhibitory Activity on Heart Muscle Cell Apoptosis
Newborn rats (within 1 day afterbirth) were obtained from pregnant Wister rats purchased from Charles River, anesthetized under ether, and sterilized with 70% ethanol, and then their hearts were excised with tweezers. The excised hearts were washed with a phosphate-buffered physiological saline (T900; Takara) and cut into pieces with surgical scissors. These tissue pieces were washed 4 to 5 times with a phosphate-buffered physiological saline to remove a majority of blood-derived non-heart muscle cells. To the tissue pieces derived from 10 newborns, 5 ml of enzyme solution (1.25 mg trypsin (Difco) and 0.25 mg collagenase (Sigma) per ml of phosphate-buffered saline (PBS)) was added and the mixture was stirred with a stirrer at 37° C. for 15 minutes. Another 2.5 ml enzyme solution was then added twice repeatedly at a 15-minutes interval. Then, Medium 199 (Gibco) containing 10% fetal calf serum (Biowiker) was added in a half volume of the enzyme solution to terminate the enzyme reaction. The cells were filtered through a Cell Strainer (Falcon) and then centrifuged at 400×g for 5 minutes, whereby the cells were collected.
The cells thus collected from 10 newborns were suspended in 50 ml Medium 199 containing 10% fetal calf serum, plated onto 100 mm Petri dishes (Iwaki) in a volume of 10 ml/dish and cultured for 1 hour in a CO2 incubator set at 5% CO2 and 37° C. The cells were then recovered, filtered through a Cell Strainer and centrifuged at 400×g for 5 minutes to collect the primary heart muscle cells derived from newborn rats.
Then, the heart muscle cells from 10 newborn rats were suspended in 2 ml low-isotonic solution (prepared by dissolving 8.29 g NH4Cl, 1.0 g KHCO3, 37 mg EDTA/2Na (ethylenediaminetetraacetic acid disodium) (Dojindo) in 1 L of water) and left for 3 minutes to disrupt erythrocytes. After 10 ml Medium 199 containing 10% fetal calf serum was added thereto, the primary heart muscle cells from newborn rats were collected by centrifugation at 400×g for 5 minutes. The cells were suspended in Medium 199 containing 10% fetal calf serum and then filtered through a cell strainer. After 0.3% trypan blue was added to, and mildly mixed with, an aliquot of the resulting cell suspension, the number of heart muscle cells was counted on an erythrocyte counting plate.
The primary heart muscle cells from newborn rats were suspended at a density of 3×10^6 cells/ml in Medium 199 containing 10% fetal calf serum, put onto a 96-well plate in a volume of 0.1 ml/well, and then cultured in a CO2 incubator set at 5% CO2 and 37° C. After the plate was stirred with a micromixer (Taiyo Kagaku Kogyo), the medium was exchanged 3 times with serum-free Medium 199, and then test compounds were added thereto. The cells were cultured for additional 4 days to induce apoptosis. Then, fetal calf serum was added thereto at a concentration of 10%, and the cells were further cultured for about 17 hours in a CO2 incubator set at 5% CO2 and 37° C. Finally, the number of viable cells was determined with Cell Counting Kit (Dojindo) using WST-8 (2-(2-methoxy-4-nitrophenyl)-3-(4-nitrophenyl)-5-(2,4-disulfophenyl)-2H-tetrazolium, monosodium salt) as the coloring substrate to determine the inhibition of the heart muscle cell apoptosis.
The above-mentioned experiment was triplicated in an independent manner.
The Mean minimal effective concentration (±SD) was shown for each test compound (Compounds 1 to 5 obtained in Reference Examples) in Table 1. In Table 1, the minimal effective concentration is defined as the concentration required to increase the mean viable cell number by 50% as compared with that in the absence of test compounds.

melting point | SMILES | minimal effective concentration [1]
240.7 to 241.7 °C | O=c1nc(-c2cnccn2)sc2ccccc12 [Example 7, 2-Pyrazinyl-4H-1,3-benzothiazine-4-one] | 0.021 µM
245.3 to 245.6 °C | O=c1nc(-c2ccccn2)sc2cc(Cl)ccc12 [Example 10, 7-Chloro-2-(2-pyridyl)-4H-1,3-benzothiazine-4-one] | 0.023 µM
250 to 250.2 °C | O=c1nc(-c2ccccn2)sc2cc(F)ccc12 [Example 19, 7-Fluoro-2-(2-pyridyl)-4H-1,3-benzothiazine-4-one] | 0.025 µM
239.9 to 240.4 °C | O=c1nc(-c2ccccn2)sc2ccc(F)cc12 [Example 20, 6-Fluoro-2-(2-pyridyl)-4H-1,3-benzothiazine-4-one] | 0.038 µM
256.5 to 257.2 °C | O=c1nc(-c2ccccn2)sc2cccc(F)c12 [Example 21, 5-Fluoro-2-(2-pyridyl)-4H-1,3-benzothiazine-4-one] | 0.03 µM
 | COC(=O)c1ccc(-c2nc(=O)c3ccccc3s2)nc1 [Example 28, Methyl 6-(4-oxo-4H-1,3-benzothiazin-2-yl)nicotinate] | 0.025 µM
246.2 to 246.7 °C | Cc1ccnc(-c2nc(=O)c3ccc(Cl)cc3s2)c1 [Example 29, 7-Chloro-2-(4-methyl-2-pyridyl)-4H-1,3-benzothiazine-4-one] | 0.035 µM
240.6 to 240.9 °C | O=c1nc(-c2cnccn2)sc2cc(Cl)ccc12 [Example 30, 7-Chloro-2-(2-pyrazyl)-4H-1,3-benzothiazine-4-one] | 0.012 µM
268 to 268.6 °C | CCCNC(=O)c1ccc(-c2nc(=O)c3ccccc3s2)nc1 [Example 37, 6-(4-Oxo-4H-1,3-benzothiazin-2-yl)-N-propylnicotinamide] | 0.037 µM
294.6 to 294.9 °C | NC(=O)c1cccc(-c2nc(=O)c3ccccc3s2)n1 [Example 38, 6-(4-Oxo-4H-1,3-benzothiazin-2-yl)-2-pyridinecarboxamide] | 0.013 µM
225 to 225.2 °C | Cc1ccc2c(=O)nc(-c3ccccn3)sc2c1 [Example 39, 7-Methyl-2-(2-pyridyl)-4H-1,3-benzothiazine-4-one] | 0.037 µM
208.2 to 208.7 °C | O=c1nc(-c2cccc(CO)n2)sc2ccccc12 [Example 40, 2-[6-(Hydroxymethyl)-2-pyridyl]-4H-1,3-benzothiazine-4-one] | 0.044 µM
207.2 to 207.8 °C | CSc1cccc(-c2nc(=O)c3ccccc3s2)n1 [Example 43, 2-(6-Methylthio-2-pyridyl)-4H-1,3-benzothiazine-4-one] | 0.053 µM
246.9 to 247.9 °C | O=c1nc(-c2ccc(CO)cn2)sc2ccccc12 [Example 48, 2-[5-(hydroxymethyl)-2-pyridyl]-4H-1,3-benzothiazine-4-one] | 0.043 µM
207.2 to 207.4 °C | O=c1nc(-c2ccc(C(F)(F)F)cn2)sc2ccccc12 [Example 49, 2-[5-(trifluoromethyl)-2-pyridyl]-4H-1,3-benzothiazine-4-one] | 0.043 µM
179.7 to 181.4 °C | CCCNC(=O)c1cccc(-c2nc(=O)c3ccccc3s2)n1 [Example 50, 6-(4-Oxo-4H-1,3-benzothiazin-2-yl)-N-propyl-2-pyridinecarboxamide] | 0.02 µM

melting point | SMILES | minimal effective concentration [1]
197.1 to 197.9 °C | O=C(NCc1ccccc1)c1cccc(-c2nc(=O)c3ccccc3s2)n1 [Example 51, N-Benzyl-6-(4-oxo-4H-1,3-benzothiazin-2-yl)-2-pyridinecarboxamide] | 0.034 µM
 | NCCCCCCNC(=O)c1cccc(-c2nc(=O)c3ccccc3s2)n1 [Example 107, N-(6-Aminohexyl)-6-(4-oxo-4H-1,3-benzothiazin-2-yl)-2-pyridinecarboxamide hydrochloride] | 0.012 µM
125.5 to 126.5 °C | CSc1cc(CCC(=O)OC(C)(C)C)cc(-c2nc(=O)c3ccccc3s2)n1 [Example 341, tert-Butyl 3-[2-(methylthio)-6-(4-oxo-4H-1,3-benzothiazin-2-yl)-4-pyridyl]propanoate] | 
235.5 to 236.5 °C | CSc1cc(CCC(=O)O)cc(-c2nc(=O)c3ccccc3s2)n1 [Example 342, 3-[2-(Methylthio)-6-(4-oxo-4H-1,3-benzothiazin-2-yl)-4-pyridyl]propionic acid] | 
219.5 to 220 °C | C[S+]([O-])c1cc(CCC(=O)OC(C)(C)C)cc(-c2nc(=O)c3ccccc3s2)n1 (centres unmarked) [Example 343, tert-Butyl 3-[2-(methylsulfinyl)-6-(4-oxo-4H-1,3-benzothiazin-2-yl)-4-pyridyl]propanoate] | 
265.5 to 266 °C | C[S+]([O-])c1cc(CCC(=O)O)cc(-c2nc(=O)c3ccccc3s2)n1 (centres unmarked) [Example 344, 3-[2-(methylsulfinyl)-6-(4-oxo-4H-1,3-benzothiazin-2-yl)-4-pyridyl]propionic acid] | 
223 °C (dec.) | CC(C)(C)OC(=O)CCc1cc(-c2nc(=O)c3ccccc3s2)nc(S(C)(=O)=O)c1 [Example 345, tert-Butyl 3-[2-(methylsulfonyl)-6-(4-oxo-4H-1,3-benzothiazin-2-yl)-4-pyridyl]propanoate] | 
305.5 to 306 °C | CS(=O)(=O)c1cc(CCC(=O)O)cc(-c2nc(=O)c3ccccc3s2)n1 [Example 346, 3-[2-(Methylsulfonyl)-6-(4-oxo-4H-1,3-benzothiazin-2-yl)-4-pyridyl]propionic acid] | 
219 to 220 °C | Cc1nc(-c2nc(=O)c3ccccc3s2)cs1 [Example 347, 2-(2-Methyl-1,3-thiazol-4-yl)-4H-1,3-benzothiazin-4-one] | 
229.1 to 229.8 °C | O=c1nc(-c2nccs2)sc2ccccc12 [Example 348, 2-(1,3-thiazol-2-yl)-4H-1,3-benzothiazin-4-one] | 
209.6 to 210.7 °C | Cc1csc(-c2nc(=O)c3ccccc3s2)n1 [Example 349, 2-(4-Methyl-1,3-thiazol-2-yl)-4H-1,3-benzothiazin-4-one] | 
206.2 to 207.4 °C | CC(=O)N1CCCC1c1ccnc(-c2nc(=O)c3ccccc3s2)c1 (centres unmarked) [Example 351, 2-[4-(1-Acetyl-2-pyrrolidinyl)-2-pyridyl]-4H-1,3-benzothiazine-4-one] | 
194.8 to 195.8 °C | CC(C)(C)OC(=O)N1CCCC1c1ccnc(-c2nc(=O)c3ccccc3s2)c1 (centres unmarked) [Example 352, tert-Butyl 2-[2-(4-oxo-4H-1,3-benzothiazin-2-yl)-4-pyridyl]-1-pyrrolidinecarboxylate] | 
189.9 to 190.7 °C | CC(C)(C)OC(=O)CCc1cc(C#N)nc(-c2nc(=O)c3ccccc3s2)c1 [Example 355, tert-Butyl 3-[2-cyano-6-(4-oxo-4H-1,3-benzothiazin-2-yl)-4-pyridyl]propanoate] | 
271 to 272.7 °C | N#Cc1cc(CCC(=O)O)cc(-c2nc(=O)c3ccccc3s2)n1 [Example 356, 3-[2-Cyano-6-(4-oxo-4H-1,3-benzothiazin-2-yl)-4-pyridyl]propanoate] | 
